Tested on: normal human lung fibroblasts
Test: Ribosomal profiling: translational efficiency in TGFβ-treated fibroblasts
Assay type: cell-based
Conditions: TGFβ-treated fibroblasts
In short: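 Cells lysed on ice after a cold PBS wash containing cycloheximide. Ribosome-protected fragments and total mRNA were prepared with the ARTseq kit and sequenced by RNA-Seq. Reads were trimmed, mapped to the human genome and counted uniquely over coding regions per gene, with low-count genes excluded before differential translational-efficiency analysis.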

CC(C=CC(=O)NO)=CC(C)C(=O)c1ccc(N(C)C)cc1 (stereo not drawn) [TSA, 7-[4-(dimethylamino)phenyl]-N-hydroxy-4,6-dimethyl-7-oxohepta-2,4-dienamide]
+ (+ = 0.9 to 1.5): renormalizing the translational profile of KITLG (ENSG00000049130) | renormalizing the translational profile of EIF4B (ENSG00000063046) | renormalizing the translational profile of ASPM (ENSG00000066279) | renormalizing the translational profile of EPB41L1 (ENSG00000088367) | renormalizing the translational profile of IRAK3 (ENSG00000090376) | renormalizing the translational profile of FMO2 (ENSG00000094963) | renormalizing the translational profile of GLTSCR2 (ENSG00000105373) | renormalizing the translational profile of GLCCI1 (ENSG00000106415) | renormalizing the translational profile of GDF10 (ENSG00000107623) | renormalizing the translational profile of C12orf57 (ENSG00000111678) | renormalizing the translational profile of PPARG (ENSG00000132170) | renormalizing the translational profile of NOV (ENSG00000136999) | renormalizing the translational profile of GAS2L3 (ENSG00000139354) | renormalizing the translational profile of PLEKHA6 (ENSG00000143850) | renormalizing the translational profile of RPL10 (ENSG00000147403) | renormalizing the translational profile of CCDC102B (ENSG00000150636) | renormalizing the translational profile of FRMD4A (ENSG00000151474) | renormalizing the translational profile of EEF1A1 (ENSG00000156508)
− (− = <0.9): renormalizing the translational profile of DNASE1L1 (ENSG00000013563) | renormalizing the translational profile of ADAMTS6 (ENSG00000049192) | renormalizing the translational profile of LETMD1 (ENSG00000050426) | renormalizing the translational profile of PLEKHA5 (ENSG00000052126) | renormalizing the translational profile of RPL18 (ENSG00000063177) | renormalizing the translational profile of HIPK2 (ENSG00000064393) | renormalizing the translational profile of RASSF1 (ENSG00000068028) | renormalizing the translational profile of PABPC1 (ENSG00000070756) | renormalizing the translational profile of RPL31 (ENSG00000071082) | renormalizing the translational profile of PLD1 (ENSG00000075651) | renormalizing the translational profile of EDN1 (ENSG00000078401) | renormalizing the translational profile of RPL6 (ENSG00000089009) | renormalizing the translational profile of KDM2B (ENSG00000089094) | renormalizing the translational profile of RPLP0 (ENSG00000089157) | renormalizing the translational profile of IGBP1 (ENSG00000089289) | renormalizing the translational profile of PABPC4 (ENSG00000090621) | renormalizing the translational profile of ACOT7 (ENSG00000097021) | renormalizing the translational profile of ATP5D (ENSG00000099624) | renormalizing the translational profile of LGALS1 (ENSG00000100097) | renormalizing the translational profile of EIF3L (ENSG00000100129) | renormalizing the translational profile of RPL3 (ENSG00000100316) | renormalizing the translational profile of CEP192 (ENSG00000101639) | renormalizing the translational profile of AMMECR1 (ENSG00000101935) | renormalizing the translational profile of PLP2 (ENSG00000102007) | renormalizing the translational profile of EIF3E (ENSG00000104408) | renormalizing the translational profile of EEF1D (ENSG00000104529) | renormalizing the translational profile of C19orf53 (ENSG00000104979) | renormalizing the translational profile of RPL18A (ENSG00000105640) | renormalizing the translational profile of COMP (ENSG00000105664) | renormalizing the translational profile of CORO2A (ENSG00000106789) | renormalizing the translational profile of RPL28 (ENSG00000108107) | renormalizing the translational profile of RPL19 (ENSG00000108298) | renormalizing the translational profile of RASD1 (ENSG00000108551) | renormalizing the translational profile of NAT9 (ENSG00000109065) | renormalizing the translational profile of RPL34 (ENSG00000109475) | renormalizing the translational profile of CRYAB (ENSG00000109846) | renormalizing the translational profile of GAPDH (ENSG00000111640) | renormalizing the translational profile of MDFI (ENSG00000112559) | renormalizing the translational profile of HBEGF (ENSG00000113070) | renormalizing the translational profile of RPL24 (ENSG00000114391) | renormalizing the translational profile of EEF1B2 (ENSG00000114942) | renormalizing the translational profile of IFIH1 (ENSG00000115267) | renormalizing the translational profile of DPH5 (ENSG00000117543) | renormalizing the translational profile of PPL (ENSG00000118898) | renormalizing the translational profile of PLEKHG1 (ENSG00000120278) | renormalizing the translational profile of LIAS (ENSG00000121897) | renormalizing the translational profile of RPL21 (ENSG00000122026) | renormalizing the translational profile of RPL5 (ENSG00000122406) | renormalizing the translational profile of INHBA (ENSG00000122641) | renormalizing the translational profile of RPL23 (ENSG00000125691) | renormalizing the translational profile of LAMP5 (ENSG00000125869) | renormalizing the translational profile of NECAB3 (ENSG00000125967) | renormalizing the translational profile of COX7C (ENSG00000127184) | renormalizing the translational profile of LIF (ENSG00000128342) | renormalizing the translational profile of MTUS1 (ENSG00000129422) | renormalizing the translational profile of ARHGEF6 (ENSG00000129675) | renormalizing the translational profile of RPL36 (ENSG00000130255) | renormalizing the translational profile of GDF15 (ENSG00000130513) | renormalizing the translational profile of ASS1 (ENSG00000130707) | renormalizing the translational profile of EIF2S3 (ENSG00000130741) | renormalizing the translational profile of RPL27 (ENSG00000131469) | renormalizing the translational profile of MATN3 (ENSG00000132031) | renormalizing the translational profile of KDM6B (ENSG00000132510) | renormalizing the translational profile of RARRES3 (ENSG00000133321) | renormalizing the translational profile of BIVM (ENSG00000134897) | renormalizing the translational profile of ATP5G2 (ENSG00000135390) | renormalizing the translational profile of KRT7 (ENSG00000135480) | renormalizing the translational profile of HNRNPA1 (ENSG00000135486) | renormalizing the translational profile of IL6 (ENSG00000136244) | renormalizing the translational profile of RPL35 (ENSG00000136942) | renormalizing the translational profile of IER3 (ENSG00000137331) | renormalizing the translational profile of DDX60 (ENSG00000137628) | renormalizing the translational profile of RPLP1 (ENSG00000137818) | renormalizing the translational profile of PAQR5 (ENSG00000137819) | renormalizing the translational profile of FGF5 (ENSG00000138675) | renormalizing the translational profile of PDE5A (ENSG00000138735) | renormalizing the translational profile of DIAPH3 (ENSG00000139734) | renormalizing the translational profile of MYO19 (ENSG00000141140) | renormalizing the translational profile of RPL13A (ENSG00000142541) | renormalizing the translational profile of RPL11 (ENSG00000142676) | renormalizing the translational profile of ACTA1 (ENSG00000143632) | renormalizing the translational profile of RPL32 (ENSG00000144713) | renormalizing the translational profile of RPL37 (ENSG00000145592) | renormalizing the translational profile of BTF3 (ENSG00000145741) | renormalizing the translational profile of HIGD2A (ENSG00000146066) | renormalizing the translational profile of CREB5 (ENSG00000146592) | renormalizing the translational profile of DENND2A (ENSG00000146966) | renormalizing the translational profile of EIF3H (ENSG00000147677) | renormalizing the translational profile of RPL7A (ENSG00000148303) | renormalizing the translational profile of EIF3M (ENSG00000149100) | renormalizing the translational profile of FAU (ENSG00000149806) | renormalizing the translational profile of HOMER1 (ENSG00000152413) | renormalizing the translational profile of PLEKHH2 (ENSG00000152527) | renormalizing the translational profile of ANKH (ENSG00000154122) | renormalizing the translational profile of ABCA6 (ENSG00000154262) | renormalizing the translational profile of ADAMTS5 (ENSG00000154736) | renormalizing the translational profile of OXA1L (ENSG00000155463) | renormalizing the translational profile of C9orf85 (ENSG00000155621) | renormalizing the translational profile of RPL30 (ENSG00000156482) | renormalizing the translational profile of NRG1 (ENSG00000157168) | renormalizing the translational profile of ADAMTS4 (ENSG00000158859) | renormalizing the translational profile of RPL8 (ENSG00000161016) | renormalizing the translational profile of RPL26 (ENSG00000161970) | renormalizing the translational profile of RPL29 (ENSG00000162244) | renormalizing the translational profile of CAMK2N1 (ENSG00000162545) | renormalizing the translational profile of IGFBP7 (ENSG00000163453) | renormalizing the translational profile of RPL22L1 (ENSG00000163584)
+++ (+++ = >2.0): renormalizing the translational profile of CIT (ENSG00000122966) | renormalizing the translational profile of OBSCN (ENSG00000154358)
++ (++ = 1.5 to 2.0): renormalizing the translational profile of AURKA (ENSG00000087586) | renormalizing the translational profile of P2RX7 (ENSG00000089041) | renormalizing the translational profile of RAB3D (ENSG00000105514) | renormalizing the translational profile of GPSM2 (ENSG00000121957) | renormalizing the translational profile of AOX1 (ENSG00000138356)

— US9993494B2, “Compositions and methods for treating fibrotic disease” (eFFECTOR Therapeutics, Inc., priority 2014, dated 2018)
